Data on three compounds can be found in patent US20260021092A1, “STRUCTURE-BASED DESIGN OF A NOVEL CLASS OF DRUGS FOR NEURODEGENERATIVE DISEASE” (The Regents of the University of California, priority 2022, published 2026).

Molecules are shown by their SMILES. Entries after “also recorded” stand apart in the source; their conditions may differ.

Series [1] addresses AD-tau fibrils seeding HEK293 cells expressing tau-K18 P301S-eYFP (Homo sapiens, UniProt P10636). Briefly: Tau biosensor cell seeding assay. Type of series: cell-based. More on the design: dose or concentration left out as unconfirmed. The conditions noted are these: screen; final inhibitor concentration on the biosensor cells. As to the method: Disaggregating molecules that produce active seeds are undesirable for therapy and are excluded from further study. HEK293T cells expressing CFP- or YFP-fused tau are transduced with exogenous AD tau fibrils.
Inhibitors were dissolved in DMSO. […] The number of seeded aggregates was determined by imaging the entire well of a 96-well plate in triplicate using a Celigo Image Cytometer (Nexcelom) in the YFP channel. […] The number of aggregates was normalized to the confluence of each well, and dose-response plots were generated by calculating the average and standard deviations from triplicate measurements.

Series [2] has as its system AD brain-derived tau fibrils. Briefly: Negative-stain EM and quantitative EM (qEM) of tau fibrils after compound incubation.
Description: We then scrutinized the four CNS-Set inhibitors by quantitative EM (qEM) imaging (FIG. 3c, see Methods).
Negatively stained EM Grids were prepared by depositing 6 μl of sample on formvar/carbon coated copper grids (400 mesh) for 3 min with. Sample was rapidly wicked using filter paper without drying the grid, and stained with 1% uranyl acetate for 2 min. […] Fibrils were counted from collections of 33 micrographs (in triplicate) for each experimental condition.
Series [3] concerns AD brain-derived tau fibrils. The experiment in a line: Dot blot of AD tau aggregates with antibody GT38 during EGCG incubation. The series is classed as biochemical, human. The conditions noted are these: EGCG incubation 1, 3, 6 and 24 hours at 37°. As to the method: Brain-derived tau PHFs were incubated with 80 μM EGCG at 37° C. in PBS various lengths of time. Samples were spotted onto nitrocellulose membrane, 20 μL were spotted for each condition, spotting 2 μL at a time and allowing to dry in between. Membrane was blocked for 1 hour in TBST with 5% milk and washed with TBST three times. Membrane was then incubated with primary antibody (either anti-tau GT38 (obtained from Virginia Lee lab at UPenn) or anti-phospho-tau AT8 (cat #MN1020, lot #UL2906281Z), 1:4000 dilution in 2% milk/TBST solution) for 1 hour, washed three times with TBST, incubated with horseradish peroxidase-conjugated secondary antibody (goat anti-mouse IgG H and L (HRP); 1:5000 Dilution in 2% milk/TBST), and washed three times in TBST. Signal was detected with Pierce ECL Plus Western Blotting Substrate (cat #32132), and blot was imaged with a Pharos FX Plus Molecular Imager.

Series [4] has as its system Neuro-2a (N2a) neuronal cells. Briefly: MTT cell viability assay of N2a cells treated with alpha-synuclein fibrils. The settings on record: final alpha-synuclein fibril concentration of 1 μM, various compound concentrations. The series is classed as cell-based. As to the method: Alpha-synuclein aggregates, particularly oligomers, are known to be cytotoxic to neurons^4. Thus, we next determined if disaggregation of alpha-synuclein aggregates by our compounds mitigates their cytotoxicity. […] The fibril and compound mixtures were then added to cultured Neuro-2a (N2a) neuronal cells, to a final alpha-synuclein fibril concentration of 1 μM.
All experiments were performed in triplicate. […] Removal from the incubator and replacement of well media with 100 μL of 100% DMSO halted the assay. Absorbance was measured at 570 nm using a SpectraMax M5 reader. A background reading at 700 nm was subtracted from the 570 nm reading. Well readings were normalized to vehicle alone treated cells (designated as 100% viable) and cells treated with 100% DMSO (designated as 0% viable).

Series [5] deals with T1, alpha-synuclein aggregates (Homo sapiens, UniProt P37840).
T1 construct: host or cells: transgenic C. elegans strain DDP1 (unc-54 promoter)
The experiment in a line: Alpha-synuclein aggregation in DDP1 C. elegans. The series is classed as in vivo. The conditions noted are these: for soluble versus insoluble alpha-synuclein in worm homogenate by Western blot: 100 μM on plates; for number of alpha-synuclein aggregates in the head region: 100 μM on plates from L1, day 6 of adulthood. The text has this: The DDP1 C. elegans strain overexpresses alpha-synuclein fused with yellow fluorescent protein (YFP) and cyan fluorescent protein (CFP)^22,23. FRET-positive fluorescent alpha-synuclein aggregates can then be visualized and quantified in the adult worms. […] PBS was used as a vehicle control. At day 6 of adulthood, the worms were visualized, and the number of aggregates were quantified by fluorescent microscopy. […] Treated worms were also homogenized for protein analysis by Western blot. Homogenate for each experimental condition was separated into insoluble pellet fractions (P) and soluble supernatant (S) fractions. For untreated worm homogenate, the majority of alpha-synuclein is found in the insoluble pellet.
For C. elegans experiments, the same protocol was used, except following the treatment period worms were harvested, flash frozen, then homogenized for protein extraction. The membrane was washed with TBST overnight before repeating the Western blot analysis for beta-actin (primary antibody anti-beta-actin (C4) (Santa Cruz Biotechnology, cat #sc-47778, lot #J1119; 1:500 dilution in 5% milk/TBST); horseradish peroxidase-conjugated secondary antibody (goat polyclonal anti-mouse IgG (Abcam; cat #ab205719, lot #GR3271082-2); 1:5000 dilution in 5% milk/TBST).
The DDP1 (uonExl [unc-54::αSyn::CFP+unc-54::αSyn::YFP(Venus)]) strain was acquired from the Caenorhabditis Genetics Center (CGC) and used for experiments. C. elegans were grown and maintained using standard conditions. Worms were synchronized using hypochlorite bleaching, hatched ovemight in M9 media (5 g/l NaCl, 6 g/l Na2HPO4, 3 g/l KH2PO4, […]) at 17° C., then cultured on plates with nematode growth medium (NGI; 17 g/l agar, 2.5 g/l peptone, 3 g/l NaCl 1 mM CaCl2, 1 mM MgSO4, 25 mM KH2PO4 pH 6, 5 μg/ml cholesterol) seeded with OP50 E. coli. Strains were maintained at 17° C. […] Treatment plates were then seeded with heat treated OP50 (30 min at 65° C.), according to the “NGM dead” method as previously published^36. Synchronized L1 worms were then added to the treatment plates and grown for 7 days. PBS was used as a control condition. 75 μM FUDR was added on the third day of growth. For imaging, worms were mounted onto 5% agar pads on glass slides, immobilized with 1% NaN3 solution, and imaged by fluorescent microscopy (GFP channel) using a ZEISS Axio Observer D1 fluorescence microscope. Alpha-synuclein aggregates in the head region were quantified.

In another series the target is α-synuclein fibrils (Homo sapiens, UniProt P37840). The experiment in a line: Table A function: disaggregators of amyloid fibrils (alpha-synuclein).

Sequence of AD-tau fibrils seeding HEK293 cells expressing tau-K18 P301S-eYFP (P10636 623-695 limits assumed, stated change not applied): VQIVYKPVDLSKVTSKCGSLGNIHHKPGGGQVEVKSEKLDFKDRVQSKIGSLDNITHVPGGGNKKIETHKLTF

In the case of `O=C(O[C@@H]1Cc2c(O)cc(O)cc2O[C@@H]1c1cc(O)c(O)c(O)c1)c1cc(O)c(O)c(O)c1` [EGCG, epigallocatechin gallate], the “inhibition of seeding in tau biosensor cells (in words)” value in series [1] is “prevents the formation of any seeds”. In addition, the entries for the “appearance of fibrils in negative stain electron micrographs” value in series [2] (3-hour EGCG incubation) and in series [2] (24 hours of EGCG incubation) were “largely intact but somewhat swollen” and “nearly gone”, respectively. In series [2] (tau fibrils treated with each compound), the “fibrils seen by electron microscopy (qualitative)” value was “Few fibrils”. The “time at which reduction in GT38-positive tau aggregate level begins” value in series [3] was in the range of 1 to 3 h.
For the compound `Cc1cc(C)c(NC(=O)Cn2nc3c4c(cccc4c2=O)-c2ccccc2-3)c(C)c1` [CNS-11, N-mesityl-2-(3-oxoindeno[1,2,3-de]phthalazin-2(3H)-yl)acetamide], in series [4], the “rescue of alpha-synuclein fibril cytotoxicity” value is on record as “no rescue of toxicity at any concentration; also recorded: unable to rescue”. In addition, in series [5], the “soluble versus insoluble alpha-synuclein in worm homogenate by Western blot” value was “solubilization of the alpha-synuclein” and the “number of alpha-synuclein aggregates in the head region” value was “reduction of total aggregates”.
As for `Cc1cccc(C)c1NC(=O)Cn1nc(Cc2ccccc2)c2ccccc2c1=O` [CNS-11g, 2-(4-benzyl-1-oxophthalazin-2-yl)-N-(2,6-dimethylphenyl)acetamide], the Function result at α-synuclein fibrils is recorded as “Dissociate α- synuclein fibrils”. In addition, in series [5], the “soluble versus insoluble alpha-synuclein in worm homogenate by Western blot” value is on record as “solubilization of the alpha-synuclein” and the “number of alpha-synuclein aggregates in the head region” value is “reduction of total aggregates”.
